Data as given in ChEMBL document CHEMBL5614439, “Targeting Thyroid-Stimulating Hormone Receptor: A Perspective on Small-Molecule Modulators and Their Therapeutic Potential” (J Med Chem, 2024).
Each block holds one compound with its values, some of them ahead of it.

Columns and labels:
Thyrotropin receptor [1] = target: T1, Thyrotropin receptor (Homo sapiens, UniProt P16473); assay: Agonist activity at TSHR (unknown origin) stably expressed in HEK293 cells assessed as intracellular cAMP accumulation incubated for 1 hr; assay type: functional, cell-based
[2] = target: Lutropin-choriogonadotropic hormone receptor (Homo sapiens, UniProt P22888); assay: Agonist activity at LHCGR (unknown origin); assay type: functional
[3] = target: T2, Follicle-stimulating hormone receptor (Homo sapiens, UniProt P23945); assay: Agonist activity at FSHR (unknown origin); assay type: functional
T2 sequence (P23945 whole entry): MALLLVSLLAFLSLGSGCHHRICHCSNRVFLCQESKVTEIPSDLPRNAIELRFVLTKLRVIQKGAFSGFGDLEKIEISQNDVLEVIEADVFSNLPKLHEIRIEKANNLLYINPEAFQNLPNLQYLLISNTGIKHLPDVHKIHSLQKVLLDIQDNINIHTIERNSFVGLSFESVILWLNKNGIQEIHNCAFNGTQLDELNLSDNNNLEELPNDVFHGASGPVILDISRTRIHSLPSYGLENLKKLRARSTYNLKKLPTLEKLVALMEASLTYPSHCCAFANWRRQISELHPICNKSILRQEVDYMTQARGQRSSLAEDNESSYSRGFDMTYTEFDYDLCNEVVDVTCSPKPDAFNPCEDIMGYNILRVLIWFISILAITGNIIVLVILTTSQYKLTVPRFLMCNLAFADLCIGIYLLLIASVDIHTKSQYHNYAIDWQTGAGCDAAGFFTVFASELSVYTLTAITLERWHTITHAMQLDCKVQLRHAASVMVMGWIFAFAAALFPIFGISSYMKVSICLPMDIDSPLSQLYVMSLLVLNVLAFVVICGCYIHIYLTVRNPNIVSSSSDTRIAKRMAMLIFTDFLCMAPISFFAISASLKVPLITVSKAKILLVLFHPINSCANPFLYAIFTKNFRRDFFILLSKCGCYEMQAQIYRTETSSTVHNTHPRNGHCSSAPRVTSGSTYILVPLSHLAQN

Thyrotropin receptor [4] = target: T1, Thyrotropin receptor; assay: Inverse agonist activity at TSH receptor (unknown origin) stably expressed in HEK293 cells assessed as reduction in TSH-induced cAMP production incubated for 40 mins by ELISA analysis; assay type: functional, cell-based
Thyrotropin receptor [5] = target: T1, Thyrotropin receptor; assay: Agonist activity at N-terminal HA-tagged TSHR (unknown origin) stably expressed in CHO cells assessed as change in intracellular […] level incubated for 60 mins by CRE-driven luciferase reporter based microplate reader; assay type: functional, cell-based
Thyrotropin receptor [6] = target: T1, Thyrotropin receptor; assay: Agonist activity at TSHR (unknown origin); assay type: functional
Thyrotropin receptor [7] = target: T1, Thyrotropin receptor; assay: Agonist activity at TSHR (unknown origin) expressed in CHO cells; assay type: functional, cell-based
Thyrotropin receptor [8] = target: T1, Thyrotropin receptor; assay: Agonist activity at N-terminal HA-tagged TSHR (unknown origin) assessed as intracellular calcium level measured for 60 mins by HTS assay; assay type: functional, cell-based
[9] = Inhibition of b-TSH-induced C-terminal GFP-tagged mouse TSHR activation expressed in HEK293 cells by cAMP assay; assay type: cell-based

Lutropin-choriogonadotropic hormone receptor, sequence (P22888 whole entry): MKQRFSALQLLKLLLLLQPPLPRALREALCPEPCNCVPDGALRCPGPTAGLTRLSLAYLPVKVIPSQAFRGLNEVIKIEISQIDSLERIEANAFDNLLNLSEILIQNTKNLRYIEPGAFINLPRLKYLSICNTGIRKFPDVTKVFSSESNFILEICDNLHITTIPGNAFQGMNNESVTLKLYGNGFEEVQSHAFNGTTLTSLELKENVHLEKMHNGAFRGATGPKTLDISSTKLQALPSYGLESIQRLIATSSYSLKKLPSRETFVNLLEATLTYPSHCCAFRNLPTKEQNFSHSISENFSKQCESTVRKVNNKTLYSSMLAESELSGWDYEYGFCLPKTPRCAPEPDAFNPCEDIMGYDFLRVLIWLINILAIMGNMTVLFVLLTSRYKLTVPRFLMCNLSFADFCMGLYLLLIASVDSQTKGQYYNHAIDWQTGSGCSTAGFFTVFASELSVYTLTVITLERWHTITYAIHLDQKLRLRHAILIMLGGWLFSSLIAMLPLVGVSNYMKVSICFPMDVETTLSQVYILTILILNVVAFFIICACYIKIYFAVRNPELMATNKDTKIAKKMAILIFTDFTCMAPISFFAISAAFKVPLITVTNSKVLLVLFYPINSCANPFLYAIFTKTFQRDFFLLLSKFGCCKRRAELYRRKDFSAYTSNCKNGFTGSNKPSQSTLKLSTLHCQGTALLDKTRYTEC
T1 sequence (P16473 whole entry): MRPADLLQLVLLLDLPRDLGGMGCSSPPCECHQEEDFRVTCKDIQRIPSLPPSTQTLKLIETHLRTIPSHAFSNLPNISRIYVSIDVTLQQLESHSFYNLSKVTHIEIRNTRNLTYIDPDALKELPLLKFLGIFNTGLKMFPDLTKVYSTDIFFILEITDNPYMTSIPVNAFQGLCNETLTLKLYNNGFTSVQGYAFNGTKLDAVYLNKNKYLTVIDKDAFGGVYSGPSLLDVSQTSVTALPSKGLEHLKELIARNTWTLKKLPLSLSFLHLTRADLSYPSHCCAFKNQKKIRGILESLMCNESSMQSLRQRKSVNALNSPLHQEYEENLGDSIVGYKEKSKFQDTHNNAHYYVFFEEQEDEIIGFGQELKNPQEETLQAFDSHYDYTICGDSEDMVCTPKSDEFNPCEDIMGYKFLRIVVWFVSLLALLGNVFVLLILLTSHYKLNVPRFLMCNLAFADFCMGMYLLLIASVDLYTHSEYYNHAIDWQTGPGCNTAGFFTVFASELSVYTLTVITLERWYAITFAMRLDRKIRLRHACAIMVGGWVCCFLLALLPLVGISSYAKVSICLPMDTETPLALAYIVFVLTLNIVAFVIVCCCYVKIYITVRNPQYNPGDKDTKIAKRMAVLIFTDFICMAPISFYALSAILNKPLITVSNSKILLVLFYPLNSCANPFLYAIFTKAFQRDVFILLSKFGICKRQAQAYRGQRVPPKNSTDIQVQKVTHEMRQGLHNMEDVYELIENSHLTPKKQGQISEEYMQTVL

EC50 (Thyrotropin receptor [1]): 600 nM
SMILES: COc1ccc(C2Nc3ccccc3C(=O)N2Cc2ccco2)cc1COc1ccc(NC(C)=O)cc1 (stereo unspecified)

EC50 (Thyrotropin receptor [1]): 40 nM
SMILES: COc1ccc(C2Nc3cccc(O)c3C(=O)N2Cc2ccccc2)cc1COc1ccc(NC(C)=O)cc1 (stereo unspecified)

EC50 [2]: 480 nM
IC50 [3]: 4600 nM
SMILES: COc1ccc(C2Nc3ccccc3C(=O)N2Cc2ccco2)cc1COc1c(C)cccc1C (stereo unspecified)

EC50 [2]: 350 nM
SMILES: COc1cccc(-c2nc(SC)nc3sc(C(=O)NC(C)(C)C)c(N)c23)c1

EC50 [2]: > 30000 nM
IC50 (Thyrotropin receptor [4]): 3500 nM
IC50 [3]: > 30000 nM
SMILES: COc1ccc(C2Nc3ccccc3C(=O)N2Cc2cccnc2)cc1COc1c(C)cccc1C (stereo unspecified)

EC50 [2]: > 10000 nM
EC50 (Thyrotropin receptor [5]): 130 nM
SMILES: CC(C)N(C(=O)c1cc(-c2ccccc2)nc2ccccc12)C(C)C

EC50 (Thyrotropin receptor [6]): 8.3 nM
EC50 (Thyrotropin receptor [7]): 8.3 nM
SMILES: CCCc1ccc(-c2cc(C(=O)NCc3ccncc3)c3ccccc3n2)cc1

EC50 (Thyrotropin receptor [7]): 4.2 nM
SMILES: COC/C=C/c1ccc(-c2nc(SC)nc3sc(C(=O)NC(C)(C)C)c(N)c23)cc1

EC50 [2]: > 10000 nM
EC50 (Thyrotropin receptor [5]): 540 nM
SMILES: CC1=C(C(=O)OCc2ccccc2)C(c2ccc(C(F)(F)F)cc2)NC(=O)N1 (stereo unspecified)

EC50 [2]: > 30000 nM
IC50 (Thyrotropin receptor [4]): 2300 nM
IC50 [3]: > 30000 nM
SMILES: COc1ccc(C2Nc3ccccc3C(=O)N2Cc2ccco2)cc1COc1c(C)cc(NC(C)=O)cc1C (stereo unspecified)

EC50 (Thyrotropin receptor [8]): 12300 nM
SMILES: CNc1nc(-c2c(-c3ccccc3)[nH]c3ccccc23)cs1

IC50 [9]: 40000 nM
SMILES: O=C1[C@@H]2[C@H]3C[C@H]([C@@H]4Sc5[nH]c(=O)sc5[C@@H](c5ccccc5)[C@H]34)[C@@H]2C(=O)N1c1ccccc1

EC50 (Thyrotropin receptor [6]): 11.6 nM
SMILES: CC(c1ccccc1)c1nc(N2CCNCC2)nc2ccccc12 (stereo unspecified)
